Results from PubChem BioAssay (NCI).
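Method: 48-hour compound exposure of cells in 96-well plates, five concentrations, linear interpolation of endpoints. TGI denotes the concentration required for complete inhibition of growth.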 Where a SMILES comes first, the peptide text is derived from it. [ ]: non-standard residue; d: D form. The star is where a group is joined. Phe(4-NO2) = N[CH](Cc1ccc([N+](=O)[O-])cc1)C(=O)O; Boc = CC(C)(C)OC(=O)*; OtBu = CC(C)(C)O*

How the values were obtained:
Assay in all cases: NCI anticancer screen, dose series, 48 h
SK-OV-3 ovarian = tested on: SK-OV-3 ovarian
UO-31 renal = tested on: UO-31 renal
SNB-75 CNS = tested on: SNB-75 CNS
HT29 colon = tested on: HT29 colon
MALME-3M melanoma = tested on: MALME-3M melanoma
RPMI-8226 leukemia = tested on: RPMI-8226 leukemia
SNB-19 CNS = tested on: SNB-19 CNS
HL-60(TB) leukemia = tested on: HL-60(TB) leukemia
SK-MEL-5 melanoma = tested on: SK-MEL-5 melanoma
CAKI-1 renal = tested on: CAKI-1 renal

Structure (SMILES) | TGI (SK-OV-3 ovarian) [µM] | TGI (UO-31 renal) [µM] | TGI (SNB-75 CNS) [µM] | TGI (HT29 colon) [µM] | TGI (MALME-3M melanoma) [µM] | TGI (RPMI-8226 leukemia) [µM] | TGI (SNB-19 CNS) [µM] | TGI (HL-60(TB) leukemia) [µM] | TGI (SK-MEL-5 melanoma) [µM] | TGI (CAKI-1 renal) [µM]
C/C(=C/CC[C@](C)(OC1OC(CO)C(O)C(O)C1O)[C@H]1CC[C@]2(C)[C@@H]1CC[C@@H]1[C@@]3(C)CC[C@H](O)C(C)(C)[C@@H]3C[C@H](O)[C@]12C)CO (some centres not stated) | > 100 | > 100 | 56 | 45.1 | 56.5 | 28.3 | 56.5 | 49.9 | 39.8 | 81.6
CCOc1cc(C=O)ccc1O |  | > 100 | > 100 | > 100 | > 100 | > 100 | > 100 | > 100 | > 100 | > 100
Cc1cc(S(=O)(=O)NC(=NCC(=O)NN)NN)c(S)cc1Cl | > 10 |  | > 10 | > 10 | > 10 | > 10 | > 10 | > 10 | > 10 | > 10
COC(=O)C(Cc1ccc([N+](=O)[O-])cc1)NC(=O)C(CC(=O)OC(C)(C)C)NC(=O)OC(C)(C)C (configuration not stated) (Boc-Asp(OtBu)-[Phe(4-NO2)]-OMe; configuration not given here) | > 100 | 29.6 | > 100 | > 100 | > 100 | > 100 | > 100 | > 100 | > 100 | > 100
O=C(CCCN1CCc2[nH]c3cc(F)ccc3c2C1)c1ccc(F)cc1 |  |  | 22.9 | 20.5 | 26 | 27.2 | > 100 | 27.2 | 30.8 | > 100
CN(C)CCNc1nc2ccccc2c2c1C(=O)c1ccccc1-2 | 13.1 | 3.17 | 1.68 | 3.5 | 1.12 | 0.599 | 5.42 | 0.812 | 1.92 | 2.54
CSc1nc2c(ncn2C2OCC(O)C(O)C2O)c(=O)[nH]1 (configuration not stated) | > 100 | > 100 | > 100 | > 100 | > 100 | > 100 | > 100 | > 100 | > 100 | 
Cc1c(-c2coc(-c3ccc(Cl)cc3)n2)c(=O)n(-c2ccccc2)n1C | > 100 | > 100 | > 100 | > 100 | > 100 | > 100 |  | > 100 | > 100 | 
COc1cc(C2S/C(=C/c3ccccc3)C(=O)N2c2ccc(Cl)cc2)cc(OC)c1OC (configuration not stated) | > 100 | > 100 | > 79.9 | > 75.9 | 87.2 | > 100 | > 100 | 85 | > 100 | > 100
C=CCOn1c(C=C)nc2c(C)cccc21 | 12.5 | 6.03 | 14.5 | 11.6 | 28 | 17.1 | 21.5 | 5.1 | 12.7 | 5.25
COC1=CC2(C=CC1=O)CCN=c1c(O)c3c(c(O)c12)=NC=N3 (configuration not stated) | > 100 | > 100 | > 100 | > 100 | > 100 | > 100 | > 100 | > 100 | > 100 | > 100
COc1ccc(C[C@H]2COC(=O)[C@@H]2Cc2cc(OC)c(OC)c(OC)c2)cc1OC | > 100 | > 100 | > 100 | > 100 | > 100 | > 100 | > 100 | > 100 | > 74.4 | > 100
CSc1nc(Br)nc2c1ncn2C1CC(Oc2ccc(C)cc2)C(COc2ccc(C)cc2)O1 (configuration not stated) | > 100 |  | 94.6 | > 100 | > 100 | > 100 | 73.8 | > 100 | > 100 | > 100
Cc1nn(C(=O)c2ccccc2O)c2c1C(c1ccc(O)cc1)SC(N)=N2 (configuration not stated) | > 10 | > 10 | 8.56 | > 10 | > 10 | > 5.38 | > 10 | > 4.33 | > 10 | > 10
Cc1[nH]c(=O)nc(N/N=C/c2ccc(O)cc2)c1C(=O)Nc1ccc(Cl)cc1 | > 100 | > 100 | > 100 |  | > 100 | > 100 | > 100 | > 100 | > 100 | > 100
COc1cc(CC(=O)c2ccc3c(c2)OCO3)cc(OC)c1OC | > 100 | > 100 | > 100 | > 100 | > 100 | > 100 | > 100 | > 100 | > 100 | > 100
Cc1ccc(C2=Nn3c(nc4sc(-c5ccccc5)cc4c3=O)SC2)cc1 | > 100 | > 100 | > 100 | > 100 | > 100 | > 100 |  | > 100 | > 100 | > 100
COC(=O)CCc1ccc2c(c1)CC1(C2)Cc2ccc(CCC(=O)OC)cc2C1 | > 100 | > 100 | > 100 | > 100 | > 100 | 89.7 |  | 38.7 | 57.7 | 
CC1=CC(c2ccccc2)n2c(nc3cc4ccccc4cc32)N1 (configuration not stated) | > 100 | > 100 | > 100 | > 100 | > 100 | > 100 | > 100 | > 100 | > 100 | > 100
CN(C)CCn1c(=O)c2ccc(NCCNCCO)c3c(=O)c4cc(O)ccc4n(c1=O)c23 | 46.7 | 28.2 | 6.2 | 5.2 | 17.1 | 8.43 | 10.8 | 4.61 | 5.22 | 
COc1cc(O)c2c(c1)C(O)C(O)CC1OC1C(=O)/C=C/CC(C)OC2=O (configuration not stated) | > 64.9 | 17.1 | 24.6 | 10 | 6.91 | 34.5 | 58.2 | > 23.4 | 15.4 | 11.5
COc1ccc([C@@]23CCC(=O)C[C@@H]2N(C)CC3)cc1OC | > 100 | > 100 | > 100 | > 100 | > 100 | > 100 | > 100 | > 100 | > 100 | > 100
